Compound	melting point [°C]
Cc1cc(C)cc(-c2nc3ccc(O)cc3n2Cc2ccccc2CBr)c1	213
CC(=O)ON=C1C(=O)Nc2cc(Cl)cc(Cl)c2C1=O	194 to 195
CCOC(=O)C(=O)Nc1ccc2c(c1)-c1c(c(C(=O)C(C#N)C(=O)Nc3ccccc3)nn1-c1ccccc1)CS2 (stereo not given)	273 to 277
Cc1ccccc1-c1cc(-n2cncn2)ncc1C(=O)N(C)Cc1cc(C(F)(F)F)cc(C(F)(F)F)c1	91 to 93
CCCc1nc(C(=O)C(C)(C)C)c(C#N)n1Cc1ccc(-c2ccccc2-c2nnnn2C(c2ccccc2)(c2ccccc2)c2ccccc2)cc1	107 to 110
Cc1nc(NC(=O)c2ccccc2)sc1C(=O)NCc1ccc(F)cc1	206 to 208
CCCCC(CC)n1c(CC)nc2c(-c3c(C)cc(C)cc3C)ncnc21 (stereo not given)	99 to 100
CCOC(=O)c1cc(C#N)c(=O)[nH]c1C	208 to 210
O=C(O)CCc1cc2c(c(Br)c1Br)OCC2	224 to 226
O=c1ccc2ccc(CNCCNc3ccccc3)cc2o1	81 to 83
COc1cc2c(cc1OC)-c1cc(N(c3c(C)cc(C)cc3C)C(C)C)nc(=O)n1CC2	182 to 183
C=CCN(c1ccc(Cl)cc1[N+](=O)[O-])S(=O)(=O)c1ccc(C)cc1	77 to 78
Cn1c(C(F)(F)F)cc(=O)n(-c2cc(Oc3ccccc3OCc3ccccc3)c(Cl)cc2F)c1=O	50.8
Cc1cc(C)nc(NC(=O)C(N)CC(C)C)c1 (stereo not given)	78
Cc1nccn1CCCc1ccc(OCc2coc(/C=C/c3ccccc3)n2)cc1	93 to 94
CCCCC(CC)C(=O)Nc1ccc2ccn(Cc3ccc(C(=O)OC)cc3)c2c1 (stereo not given)	139 to 141
CCc1nccn1-c1nc(-c2ccc(Cl)cc2)c(CCCOc2ccccc2OC)o1	78 to 79
CC(Cc1cccnc1)(NC(=O)OC1C2CC3CC(C2)CC1C3)C(=O)NC(CO)Cc1ccccc1 (stereo not given)	63 to 67
CCNc1ccc(-c2c(N)nc(N)nc2CC)cc1[N+](=O)[O-]	275 to 276
CNS(=O)(=O)c1ccc(-c2cc(N3CCOCC3)cc(Nc3ccc(OC(F)(F)F)cc3)n2)cc1	234 to 236
COc1ccc(-c2cc3c(N4CCOCC4)nnc(N4CCOCC4)c3c(C)n2)cc1	206 to 209
CCOc1ccc(C2=NN(C3CCN(C(=O)N4CCOCC4)CC3)C(=O)[C@@H]3CC=CC[C@H]23)cc1OCC	139 to 141
COc1oc2cccc(-c3ccc(O)cc3)c2c1C(C)=O	222
N#Cc1cnc2sc(-c3ccccc3)cc2c1Nc1ccc2[nH]ccc2c1	> 245
CCOC(=O)c1c(Nc2ccccc2)nc2ccc(Br)cc2c1Cl	171 to 172

Compound	melting point [°C]
Cc1cc(Cl)nc2ccc(Cn3ccnc3)cc12	121
O=[N+]([O-])CCc1cccc2ccccc12	45 to 46
CC(C)C1(C)N=C(c2nc3c(cc2C(=O)O)CCO3)NC1=O (stereo not given)	189 to 192
Cc1cc(SCc2sc(-c3ccc(C(F)(F)F)cc3)nc2C)cc(C)c1OCC(=O)O	157 to 158
Cc1ccccc1COc1cccnc1NC(=S)Nc1ccc(Cl)cc1	181 to 183
CCOC(=O)N1C(NC(C)C)=NS(=O)(=O)c2c1cnn2C	141 to 145
Cc1c(C)c2c(c(C)c1OCc1ccccc1)CC(C)(CN1CCN(c3ccccc3)CC1)O2 (stereo not given)	120 to 121
COCN1C(=O)COc2ccc([N+](=O)[O-])cc21	120 to 122
CCc1cccc2c3c([nH]c12)C(CC)(CC(=O)OC)OCC3=NO (stereo not given)	188 to 190
COc1ccc2c(n1)c(CCNC(C)=O)c1n2CCCO1	92 to 93
CC(C)c1[nH]c2ccccc2c1C=C1SC(=S)N(CC(=O)O)C1=O	259 to 260
O=C(O)c1ccc2c(c1)C(=O)CCC2	210 to 215
COC(=O)c1ccc2cc(C(=O)c3cc(OCc4ccc(F)cc4)c4c(c3)C(C)(C)CCC4(C)C)ccc2c1	179
Cc1ccc(C2CCN(C(=O)Nc3ccc4cc(CN5CCCC5)cnc4c3)CC2)cc1	244 to 246
CCCCCCCCNC(=O)CC(=O)c1c2ccccc2cc2ccccc12	70 to 72
CC1(C(Cl)(Cl)Cl)C=CC(=O)C=C1	103
CCOC(=O)C1=C(C)NC(N)=C(C(=O)OCC)C1c1ccco1 (stereo not given)	183
O=C1c2ccccc2-n2c(nc3ccccc3c2=O)CN1CCc1ccccc1	208 to 210
CCC(Oc1ccc(-n2c(C)nc3cc(C(F)(F)F)ccc32)cc1)C(=O)O (stereo not given)	98
CCCCCCCCCCNC(=O)c1ccc(N(CC(=O)O)CC(=O)O)cc1	155 to 157
COC(=O)c1ccc(NN2C(=O)C(C)=C(C)C2=O)cc1C(=O)Nc1nc(OC)nc(OC)n1	123 to 127
Nc1cc(Br)cc2cccnc12	142 to 145
CNc1cc(Oc2ccc3c(c2)OCCN3)ncn1	153
O=C(NCCOc1cccc2c1OCC(CO)O2)c1ccc(F)cc1 (stereo not given)	124
Nc1nc2c(sc(=O)n2CC(O)CO)c(=O)[nH]1 (stereo not given)	248 to 254

— a melting point compilation (Tetko et al.; mined from patent text by program, amines drawn as free bases though some values may be those of a salt)
